Test results from patent publication US20230355626A1, “INHIBITORS OF HUMAN IMMUNODEFICIENCY VIRUS REPLICATION” (VIIV HEALTHCARE UK (NO.5) LIMITED, priority 2020, published 2023).

Experiments:
recombinant NL4-3 virus = test: HIV cell culture assay (antiviral activity, luciferase readout in infected MT-2 cells); assay type: cell-based; conditions: Human immunodeficiency virus 1, NL43, MT2
Description: HIV cell culture assay—MT-2 cells, 293T cells and the proviral DNA clone of NL4-3 virus were obtained from the NIH AIDS Research and Reference Reagent Program. MT-2 cells were propagated in RPMI 1640 media supplemented with 10% heat inactivated fetal bovine serum (FBS), 100 μg/ml penicillin G and up to 100 units/mL streptomycin. The 293T cells were propagated in DMEM media supplemented with 10% heat inactivated FBS, 100 μg/mL penicillin G and 100 μg/mL streptomycin. A recombinant NL4-3 proviral clone, in which a section of the nef gene was replaced with the Renilla luciferase gene, was used to make the reference virus used in these studies. The recombinant virus was prepared through transfection of the recombinant NL4-3 proviral clone into 293T cells using Transit-293 Transfection Reagent from Mirus Bio LLC (Madison, WI). Supernatant was harvested after 2-3 days and the amount of virus present was titered in MT-2 cells using luciferase enzyme activity as a marker by measuring luciferase enzyme activity. Luciferase was quantitated using the EnduRen Live Cell Substrate from Promega (Madison, WI). Antiviral activities of compounds toward the recombinant virus were quantified by measuring luciferase activity in MT-2 cells infected for 4-5 days with the recombinant virus in the presence of serial dilutions of the compound.
The 50% effective concentration (EC50) was calculated by using the exponential form of the median effect equation where (Fa)=1/[1+(ED50/drug conc.)m] (Johnson VA, Byington RT. Infectivity Assay. In Techniques in HIV Research. ed. Aldovini A, Walker BD. 71-76. New York: Stockton Press.1990). Curve fitting and analysis were performed with ActivityBase XE Runner software version 9.1.0.4 using model 203 (ID Business Solutions, LTD, Guildford, UK).

[1] = Compound cytotoxicity, XTT-based colorimetric assay; assay type: cell-based; conditions: human; uninfected MT2 cells, day 4, XTT assay
Description: Compound cytotoxicity and the corresponding CC50 values were determined using the same protocol as described in the antiviral assay except that uninfected cells were used. Cytotoxicity was assessed on day 4 in uninfected MT2 cells by using an XTT (2,3-bis[2-Methoxy-4-nitro-5-sulfophenyl]-2H-tetrazolium-5-carboxyanilide inner salt)-based colorimetric assay (Sigma-Aldrich, St Louis, Mo).

## Cn1nc(NS(C)(=O)=O)c2c(Cl)ccc(-n3c([C@H](Cc4cc(F)cc(F)c4)NC(=O)Cn4nc(C(F)F)c5c4C(F)(F)[C@@H]4C[C@H]54)nc4nc(OC5CC=CC5)ccc4c3=O)c21 (atropisomer, axis not shown; (P)) [Example 1, N-((S)-1-((3P)-3-(4-chloro-1-methyl-3-(methylsulfonamido)-1H-indazol-7-yl)-7-(cyclopent-3-en-1-yloxy)-4-oxo-3,4-dihydropyrido[2,3-d]pyrimidin-2-yl)-2-(3,5-difluorophenyl)ethyl)-2-((3bS,4aR)-3-(difluoromethyl)-5,5-difluoro-3b,4,4a,5-tetrahydro-1H-cyclopropa[3,4]cyclopenta[1,2-c]pyrazol-1-yl)acetamide]
Recombinant NL4-3 virus
  EC50: 0.024 nM
[1]
  CC50 at 4 day: > 100 nM

## Cn1nc(NS(C)(=O)=O)c2c(Cl)ccc(-n3c([C@H](Cc4cc(F)cc(F)c4)NC(=O)Cn4nc(C(F)F)c5c4C(F)(F)[C@@H]4C[C@H]54)nc4nc(OCc5ccncc5)ccc4c3=O)c21 (atropisomer, axis not shown; (P)) [Example 2, N-((S)-1-((3P,3P)-3-(4-chloro-1-methyl-3-(methylsulfonamido)-1H-indazol-7-yl)-4-oxo-7-(pyridin-4-ylmethoxy)-3,4-dihydropyrido[2,3-d]pyrimidin-2-yl)-2-(3,5-difluorophenyl)ethyl)-2-((3bS,4aR)-3-(difluoromethyl)-5,5-difluoro-3b,4,4a,5-tetrahydro-1H-cyclopropa[3,4]cyclopenta[1,2-c]pyrazol-1-yl)acetamide]
Recombinant NL4-3 virus
  EC50: 0.06 nM
[1]
  CC50 at 4 day: > 100 nM

## Cn1nc(NS(C)(=O)=O)c2c(Cl)ccc(-n3c([C@H](Cc4cc(F)cc(F)c4)NC(=O)Cn4nc(C(F)F)c5c4C(F)(F)[C@@H]4C[C@H]54)nc4nc(OCc5cccnc5)ccc4c3=O)c21 (atropisomer, axis not shown; (P)) [Example 3, N-[(1S)-1-[(3P)-3-(4-chloro-3-methanesulfonamido-1-methyl-1H-indazol-7-yl)-4-oxo-7-[(pyridin-3-yl)methoxy]-3H,4H-pyrido[2,3-d]pyrimidin-2-yl]-2-(3,5-difluorophenyl)ethyl]-2-[(2S,4R)-9-(difluoromethyl)-5,5-difluoro-7,8-diazatricyclo[4.3.0.0^2,^4]nona-1(6),8-dien-7-yl]acetamide]
Recombinant NL4-3 virus
  EC50: 0.048 nM
[1]
  CC50 at 4 day: > 100 nM

## Cn1nc(NS(C)(=O)=O)c2c(Cl)ccc(-n3c([C@H](Cc4cc(F)cc(F)c4)NC(=O)Cn4nc(C(F)F)c5c4C(F)(F)[C@@H]4C[C@H]54)nc4nc(OCCC(C)(C)C(F)(F)F)ccc4c3=O)c21 (atropisomer, axis not shown; (P)) [Example 4, N-((S)-1-((3P)-3-(4-chloro-1-methyl-3-(methylsulfonamido)-1H-indazol-7-yl)-4-oxo-7-(4,4,4-trifluoro-3,3-dimethylbutoxy)-3,4-dihydropyrido[2,3-d]pyrimidin-2-yl)-2-(3,5-difluorophenyl)ethyl)-2-((3bS,4aR)-3-(difluoromethyl)-5,5-difluoro-3b,4,4a,5-tetrahydro-1H-cyclopropa[3,4]cyclopenta[1,2-c]pyrazol-1-yl)acetamide]
Recombinant NL4-3 virus
  EC50: 0.078 nM
[1]
  CC50 at 4 day: > 200 nM

## Cn1nc(NS(C)(=O)=O)c2c(Cl)ccc(-n3c([C@H](Cc4cc(F)cc(F)c4)NC(=O)Cn4nc(C(F)F)c5c4C(F)(F)[C@@H]4C[C@H]54)nc4nc(OCCC(C)(C)c5ccccc5)ccc4c3=O)c21 (atropisomer, axis not shown; (P)) [Example 5, N-((S)-1-((3P)-3-(4-chloro-1-methyl-3-(methylsulfonamido)-1H-indazol-7-yl)-7-(3-methyl-3-phenylbutoxy)-4-oxo-3,4-dihydropyrido[2,3-d]pyrimidin-2-yl)-2-(3,5-difluorophenyl)ethyl)-2-((3bS,4aR)-3-(difluoromethyl)-5,5-difluoro-3b,4,4a,5-tetrahydro-1H-cyclopropa[3,4]cyclopenta[1,2-c]pyrazol-1-yl)acetamide]
Recombinant NL4-3 virus
  EC50: 0.43 nM
[1]
  CC50 at 4 day: > 100 nM

## Cc1cc(C)nc(COc2ccc3c(=O)n(-c4ccc(Cl)c5c(NS(C)(=O)=O)nn(C)c45)c([C@H](Cc4cc(F)cc(F)c4)NC(=O)Cn4nc(C(F)F)c5c4C(F)(F)[C@@H]4C[C@H]54)nc3n2)n1 (atropisomer, axis not shown; (P)) [Example 6, N-((S)-1-((3P,3P)-3-(4-chloro-1-methyl-3-(methylsulfonamido)-1H-indazol-7-yl)-7-((4,6-dimethylpyrimidin-2-yl)methoxy)-4-oxo-3,4-dihydropyrido[2,3-d]pyrimidin-2-yl)-2-(3,5-difluorophenyl)ethyl)-2-((3bS,4aR)-3-(difluoromethyl)-5,5-difluoro-3b,4,4a,5-tetrahydro-1H-cyclopropa[3,4]cyclopenta[1,2-c]pyrazol-1-yl)acetamide]
Recombinant NL4-3 virus
  EC50: 0.036 nM
[1]
  CC50 at 4 day: > 500 nM

## Cc1ccnc(COc2ccc3c(=O)n(-c4ccc(Cl)c5c(NS(C)(=O)=O)nn(C)c45)c([C@H](Cc4cc(F)cc(F)c4)NC(=O)Cn4nc(C(F)F)c5c4C(F)(F)[C@@H]4C[C@H]54)nc3n2)n1 (atropisomer, axis not shown; (P)) [Example 7, N-((S)-1-((3P,3P)-3-(4-chloro-1-methyl-3-(methylsulfonamido)-1H-indazol-7-yl)-7-((4-methylpyrimidin-2-yl)methoxy)-4-oxo-3,4-dihydropyrido[2,3-d]pyrimidin-2-yl)-2-(3,5-difluorophenyl)ethyl)-2-((3bS,4aR)-3-(difluoromethyl)-5,5-difluoro-3b,4,4a,5-tetrahydro-1H-cyclopropa[3,4]cyclopenta[1,2-c]pyrazol-1-yl)acetamide]
Recombinant NL4-3 virus
  EC50: 0.059 nM
[1]
  CC50 at 4 day: > 500 nM

## Cc1cnc(COc2ccc3c(=O)n(-c4ccc(Cl)c5c(NS(C)(=O)=O)nn(C)c45)c([C@H](Cc4cc(F)cc(F)c4)NC(=O)Cn4nc(C(F)F)c5c4C(F)(F)[C@@H]4C[C@H]54)nc3n2)nc1 (atropisomer, axis not shown; (P)) [Example 8, N-((S)-1-((3P,3P)-3-(4-chloro-1-methyl-3-(methylsulfonamido)-1H-indazol-7-yl)-7-((5-methylpyrimidin-2-yl)methoxy)-4-oxo-3,4-dihydropyrido[2,3-d]pyrimidin-2-yl)-2-(3,5-difluorophenyl)ethyl)-2-((3bS,4aR)-3-(difluoromethyl)-5,5-difluoro-3b,4,4a,5-tetrahydro-1H-cyclopropa[3,4]cyclopenta[1,2-c]pyrazol-1-yl)acetamide]
Recombinant NL4-3 virus
  EC50: 0.049 nM
[1]
  CC50 at 4 day: > 100 nM

## CN(CCOc1ccc2c(=O)n(-c3ccc(Cl)c4c(NS(C)(=O)=O)nn(C)c34)c([C@H](Cc3cc(F)cc(F)c3)NC(=O)Cn3nc(C(F)F)c4c3C(F)(F)[C@@H]3C[C@H]43)nc2n1)CC(F)(F)F (atropisomer, axis not shown; (P)) [Example 9, N-((S)-1-((3P)-3-(4-chloro-1-methyl-3-(methylsulfonamido)-1H-indazol-7-yl)-7-(2-(methyl(2,2,2-trifluoroethyl)amino)ethoxy)-4-oxo-3,4-dihydropyrido[2,3-d]pyrimidin-2-yl)-2-(3,5-difluorophenyl)ethyl)-2-((3bS,4aR)-3-(difluoromethyl)-5,5-difluoro-3b,4,4a,5-tetrahydro-1H-cyclopropa[3,4]cyclopenta[1,2-c]pyrazol-1-yl)acetamide]
Recombinant NL4-3 virus
  EC50: 0.018 nM
[1]
  CC50 at 4 day: > 100 nM

## CN(CCOc1ccc2c(=O)n(-c3ccc(Cl)c4c(NS(C)(=O)=O)nn(C)c34)c([C@H](Cc3cc(F)cc(F)c3)NC(=O)Cn3nc(C(F)F)c4c3C(F)(F)[C@@H]3C[C@H]43)nc2n1)S(C)(=O)=O (atropisomer, axis not shown; (P)) [Example 10, N-((S)-1-((3P)-3-(4-chloro-1-methyl-3-(methylsulfonamido)-1H-indazol-7-yl)-7-(2-(N-methylmethylsulfonamido)ethoxy)-4-oxo-3,4-dihydropyrido[2,3-d]pyrimidin-2-yl)-2-(3,5-difluorophenyl)ethyl)-2-((3bS,4aR)-3-(difluoromethyl)-5,5-difluoro-3b,4,4a,5-tetrahydro-1H-cyclopropa[3,4]cyclopenta[1,2-c]pyrazol-1-yl)acetamide]
Recombinant NL4-3 virus
  EC50: 0.041 nM
[1]
  CC50 at 4 day: > 500 nM

## Cn1nc(NS(C)(=O)=O)c2c(Cl)ccc(-n3c([C@H](Cc4cc(F)cc(F)c4)NC(=O)Cn4nc(C(F)F)c5c4C(F)(F)[C@@H]4C[C@H]54)nc4nc(OCCC5CC(F)(F)C5)ccc4c3=O)c21 (atropisomer, axis not shown; (P)) [Example 32, N-((S)-1-((3P,3P)-3-(4-chloro-1-methyl-3-(methylsulfonamido)-1H-indazol-7-yl)-7-(2-(3,3-difluorocyclobutyl)ethoxy)-4-oxo-3,4-dihydropyrido[2,3-d]pyrimidin-2-yl)-2-(3,5-difluorophenyl)ethyl)-2-((3bS,4aR)-3-(difluoromethyl)-5,5-difluoro-3b,4,4a,5-tetrahydro-1H-cyclopropa[3,4]cyclopenta[1,2-c]pyrazol-1-yl)acetamide]
[1]
  CC50 at 4 day: > 100 nM
